6 compounds from patent US20240189289A1, “INHIBITORS OF EPHB3 SIGNALING” (The Brigham and Women`s Hospital, Inc., priority 2021, published 2024) can be followed below.

“Also recorded” adds a separate entry of the source. Where two headings read alike, the source gives them in different places.

One assay concerns splenic CD11b+ monocytes. The assay can be described thus: Monocyte migration assay with astrocyte-conditioned medium. It is filed as cell-based, mouse. The conditions noted are these: ACM from astrocytes pre-treated with compound. On the procedure: (§1) Generation of astrocyte-conditioned medium (ACM). […] After 24 h, cells were extensively washed with 1×PBS, and incubated with fresh astrocyte complete medium for 48 h. Supernatants were spun down and kept at −80° C. until tested in migration and neurotoxicity assays.
Monocyte Migration Assay. Monocytes were purified from spleens from C57BL/6J mice using CD11b Microbeads (#130-049-601, Miltenyi) following the manufacturer's instructions. 100,000 monocytes were seeded in the upper chamber of a 24-well cell culture transwell, with a 5 μm pore size (#3421, Thermo Fisher Scientific), containing 300 μL of astrocyte-conditioned medium (as detailed earlier) in the bottom chamber. After 3 h incubation at 37° C. in 5% CO2, cells were collected from the lower chamber after shaking and accutase solution incubation (#A6964, Sigma-Aldrich) and quantified by FACS.

The test system of another assay is N2A neuronal cells. Description: Neurotoxicity assay of astrocyte-conditioned medium (LDH release). It is filed as cell-based, mouse. The conditions noted are these: ACM from astrocytes pre-treated with compound, LDH release after 24 h. How it is done:
as §1
Neurotoxicity Assay. N2A neuronal cells (#CCL-131, ATCC) were plated and pre-activated with 100 ng/mL mouse IFNγ (#485-MI-100; R&D Systems) for 24 h.
Thereafter, after extensive washing with 1×PBS, medium was replaced with ACM and after 24 h the supernatant was harvested for cytotoxicity evaluation by measuring LDH release with CytoTox 96 nonradioactive cytotoxicity assay kit (#G1780, Promega) following the manufacturer's protocol.
(In general: LDH leaks from cells whose membrane has failed.)

Assay [1] concerns PI3K/AKT/mTOR signaling in astrocytes. Description: Western blot of PI3K/AKT/mTOR/NF-κB signaling in primary murine astrocytes. The format is cell-based, mouse. The note with it: astrocytes activated 30 minutes with TNFα and IL-1β. On the procedure: Mouse primary astrocyte cultures. […] The cell suspension was then cultured at 37° C. in humidified 5% CO2 on poly-L-Lysine (#P4707, Sigma-Aldrich) pre-coated cell culture flasks. Medium was replaced every 3-5 days. The cells reached confluence after 7-10 days. Microglia were separated by shaking the glia culture at 225 rpm at 37° C. for at least 3 h and washing extensively with 1×PBS. Astrocytes were detached by mild trypsinization with Trypsin-EDTA (0.05%) at 37° C. and plated. […] Both cell types were then cultured separately for downstream procedures. […] Finally, microglia and astrocytes of each condition where magnetically separated as before and lysed for downstream gene expression analysis.
SDS-PAGE and Western blot. […] Membranes were blocked in 10% skimmed milk (#M0841, Lab Scientific) in TBS-T (#IBB-180-2L, Boston BioProducts). Primary antibodies were incubated ON at 4° C. and secondary 30 minutes at RT.
HRP-conjugated blots were developed using the KwikQuant imaging system and KwikQuant western blot detection kit (#R1004 Kindle Biosciences).

A further assay deals with EphA4 (Homo sapiens, UniProt P54764). Description: Eph receptor kinase activity assay (radiometric), EphA4. The format is biochemical. The conditions noted are these: for remaining activity at 0.01 µM: 10 nM compound, read-out: EphA4 % act 10 nM; for remaining activity at 0.03 µM: 30 nM compound, read-out: EphA4 % act 30 nM; for remaining activity at 0.1 µM: 100 nM compound, read-out: EphA4 % act 100 nM.
Chain of EphA4 (P54764 20-986): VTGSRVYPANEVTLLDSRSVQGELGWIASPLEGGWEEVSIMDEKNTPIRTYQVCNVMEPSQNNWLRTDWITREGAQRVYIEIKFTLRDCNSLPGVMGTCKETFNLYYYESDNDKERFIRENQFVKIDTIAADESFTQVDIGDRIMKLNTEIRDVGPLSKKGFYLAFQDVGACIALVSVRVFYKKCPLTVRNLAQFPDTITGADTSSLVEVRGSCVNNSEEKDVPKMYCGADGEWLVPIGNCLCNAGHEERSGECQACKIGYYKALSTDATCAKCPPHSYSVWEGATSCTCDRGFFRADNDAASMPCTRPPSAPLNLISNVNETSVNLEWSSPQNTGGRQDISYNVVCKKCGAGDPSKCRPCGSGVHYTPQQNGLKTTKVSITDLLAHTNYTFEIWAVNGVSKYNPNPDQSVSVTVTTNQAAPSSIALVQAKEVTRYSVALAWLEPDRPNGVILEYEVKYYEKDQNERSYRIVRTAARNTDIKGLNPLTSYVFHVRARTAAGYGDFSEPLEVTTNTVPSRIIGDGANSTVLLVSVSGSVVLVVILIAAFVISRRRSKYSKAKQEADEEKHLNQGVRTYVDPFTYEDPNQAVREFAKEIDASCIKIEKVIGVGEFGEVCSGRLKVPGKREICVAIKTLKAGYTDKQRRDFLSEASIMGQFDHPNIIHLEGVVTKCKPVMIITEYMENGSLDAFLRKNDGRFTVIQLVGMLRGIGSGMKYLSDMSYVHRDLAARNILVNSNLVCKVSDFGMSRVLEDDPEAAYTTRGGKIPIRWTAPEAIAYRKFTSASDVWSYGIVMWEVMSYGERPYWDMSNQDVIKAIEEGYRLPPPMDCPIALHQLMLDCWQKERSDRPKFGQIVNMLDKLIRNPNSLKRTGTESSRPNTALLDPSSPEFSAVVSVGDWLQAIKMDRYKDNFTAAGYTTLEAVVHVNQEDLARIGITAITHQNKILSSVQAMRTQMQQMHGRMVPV

The target in the next assay is T1, EphB4 (Homo sapiens, UniProt P54760).
T1 sequence (P54760 16-987): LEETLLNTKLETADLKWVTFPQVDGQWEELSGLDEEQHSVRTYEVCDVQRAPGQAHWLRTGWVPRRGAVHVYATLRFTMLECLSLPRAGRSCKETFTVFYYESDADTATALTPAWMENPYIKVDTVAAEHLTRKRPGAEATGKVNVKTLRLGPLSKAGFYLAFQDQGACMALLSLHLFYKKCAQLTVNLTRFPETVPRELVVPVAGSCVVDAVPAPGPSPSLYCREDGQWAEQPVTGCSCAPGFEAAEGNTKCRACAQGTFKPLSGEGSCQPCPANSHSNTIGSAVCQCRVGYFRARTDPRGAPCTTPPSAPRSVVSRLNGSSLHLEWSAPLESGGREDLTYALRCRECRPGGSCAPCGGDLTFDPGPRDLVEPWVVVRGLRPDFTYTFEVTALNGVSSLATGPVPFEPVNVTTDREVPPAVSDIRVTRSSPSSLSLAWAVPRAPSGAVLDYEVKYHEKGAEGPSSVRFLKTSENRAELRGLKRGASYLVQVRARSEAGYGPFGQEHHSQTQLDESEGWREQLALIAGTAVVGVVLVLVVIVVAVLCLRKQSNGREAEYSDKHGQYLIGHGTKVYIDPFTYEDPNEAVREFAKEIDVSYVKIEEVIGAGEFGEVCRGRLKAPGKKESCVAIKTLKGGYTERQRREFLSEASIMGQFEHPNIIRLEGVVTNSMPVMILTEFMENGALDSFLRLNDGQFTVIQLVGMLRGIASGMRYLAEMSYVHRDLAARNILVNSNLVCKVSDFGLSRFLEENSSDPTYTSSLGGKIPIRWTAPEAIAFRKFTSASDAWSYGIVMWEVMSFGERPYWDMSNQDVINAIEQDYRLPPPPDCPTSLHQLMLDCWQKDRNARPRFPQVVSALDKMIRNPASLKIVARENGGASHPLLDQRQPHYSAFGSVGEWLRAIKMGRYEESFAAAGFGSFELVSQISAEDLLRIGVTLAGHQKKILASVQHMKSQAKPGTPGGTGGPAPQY
Description: Eph receptor kinase activity assay (radiometric), EphB4. It is filed as biochemical. The note with it: for remaining activity at 0.01 µM: 10 nM compound, read-out: EphB4 % act 10 nM; for remaining activity at 0.03 µM: 30 nM compound, read-out: EphB4 % act 30 nM; for remaining activity at 0.1 µM: 100 nM compound, read-out: EphB4 % act 100 nM.

In a further assay the target is T2, EphB3 (Homo sapiens, UniProt P54753).
T2 sequence (P54753 34-998): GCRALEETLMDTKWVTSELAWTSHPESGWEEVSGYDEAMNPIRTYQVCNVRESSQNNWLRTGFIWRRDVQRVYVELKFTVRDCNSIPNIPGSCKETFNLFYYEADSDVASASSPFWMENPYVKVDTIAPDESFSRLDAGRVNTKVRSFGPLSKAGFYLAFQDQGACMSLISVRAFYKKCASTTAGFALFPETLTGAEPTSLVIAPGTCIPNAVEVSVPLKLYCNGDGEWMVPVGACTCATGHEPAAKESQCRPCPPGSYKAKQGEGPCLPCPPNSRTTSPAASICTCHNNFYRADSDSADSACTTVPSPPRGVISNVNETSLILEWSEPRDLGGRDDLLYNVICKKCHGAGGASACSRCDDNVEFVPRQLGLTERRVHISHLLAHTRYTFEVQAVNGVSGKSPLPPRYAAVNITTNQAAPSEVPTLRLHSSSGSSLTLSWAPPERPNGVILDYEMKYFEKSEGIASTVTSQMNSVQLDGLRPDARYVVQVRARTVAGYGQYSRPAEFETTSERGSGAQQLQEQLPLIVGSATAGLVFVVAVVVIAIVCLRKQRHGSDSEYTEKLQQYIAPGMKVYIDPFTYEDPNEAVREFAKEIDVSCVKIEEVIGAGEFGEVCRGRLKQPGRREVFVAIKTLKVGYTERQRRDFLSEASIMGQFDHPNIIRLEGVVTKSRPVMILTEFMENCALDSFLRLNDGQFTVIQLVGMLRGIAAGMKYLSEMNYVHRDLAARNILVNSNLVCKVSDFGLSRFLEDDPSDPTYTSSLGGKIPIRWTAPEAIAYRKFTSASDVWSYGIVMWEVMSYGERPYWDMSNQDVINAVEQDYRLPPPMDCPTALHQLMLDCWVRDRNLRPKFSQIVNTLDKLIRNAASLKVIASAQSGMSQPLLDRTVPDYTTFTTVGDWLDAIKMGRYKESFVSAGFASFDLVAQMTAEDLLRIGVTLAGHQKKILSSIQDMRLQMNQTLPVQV
Description: EphB3 radiometric kinase activity assay (33P ATP filter binding). The format is biochemical. The conditions noted are these: for remaining activity at 0.01 µM: 10 nM compound, read-out: EphB3 % act 10 nM; for remaining activity at 0.03 µM: 30 nM compound, read-out: EphB3 % act 30 nM; for remaining activity at 0.1 µM: 100 nM compound, read-out: EphB3 % act 100 nM; for IC50: read-out: EphB3 (nM) IC50. How it is done:
EphB3 radiometric kinase activity assay. To study the EphB3 kinase activity, a radioactive filter binding assay using 33P ATP was performed as described at the […] International Centre for Kinase profiling. […] The mix was harvested onto P81 filter plates and counts were read on a Topcount NXT.

The next assay concerns the target EphA2 (Homo sapiens, UniProt P29317). Description: Eph receptor kinase activity assay (radiometric), EphA2. The format is biochemical. The conditions noted are these: for remaining activity at 0.01 µM: 10 nM compound, read-out: EphA2 % act 10 nM; for remaining activity at 0.03 µM: 30 nM compound, read-out: EphA2 % act 30 nM; for remaining activity at 0.1 µM: 100 nM compound, read-out: EphA2 % act 100 nM.

Chain of EphA2 (P29317 24-976): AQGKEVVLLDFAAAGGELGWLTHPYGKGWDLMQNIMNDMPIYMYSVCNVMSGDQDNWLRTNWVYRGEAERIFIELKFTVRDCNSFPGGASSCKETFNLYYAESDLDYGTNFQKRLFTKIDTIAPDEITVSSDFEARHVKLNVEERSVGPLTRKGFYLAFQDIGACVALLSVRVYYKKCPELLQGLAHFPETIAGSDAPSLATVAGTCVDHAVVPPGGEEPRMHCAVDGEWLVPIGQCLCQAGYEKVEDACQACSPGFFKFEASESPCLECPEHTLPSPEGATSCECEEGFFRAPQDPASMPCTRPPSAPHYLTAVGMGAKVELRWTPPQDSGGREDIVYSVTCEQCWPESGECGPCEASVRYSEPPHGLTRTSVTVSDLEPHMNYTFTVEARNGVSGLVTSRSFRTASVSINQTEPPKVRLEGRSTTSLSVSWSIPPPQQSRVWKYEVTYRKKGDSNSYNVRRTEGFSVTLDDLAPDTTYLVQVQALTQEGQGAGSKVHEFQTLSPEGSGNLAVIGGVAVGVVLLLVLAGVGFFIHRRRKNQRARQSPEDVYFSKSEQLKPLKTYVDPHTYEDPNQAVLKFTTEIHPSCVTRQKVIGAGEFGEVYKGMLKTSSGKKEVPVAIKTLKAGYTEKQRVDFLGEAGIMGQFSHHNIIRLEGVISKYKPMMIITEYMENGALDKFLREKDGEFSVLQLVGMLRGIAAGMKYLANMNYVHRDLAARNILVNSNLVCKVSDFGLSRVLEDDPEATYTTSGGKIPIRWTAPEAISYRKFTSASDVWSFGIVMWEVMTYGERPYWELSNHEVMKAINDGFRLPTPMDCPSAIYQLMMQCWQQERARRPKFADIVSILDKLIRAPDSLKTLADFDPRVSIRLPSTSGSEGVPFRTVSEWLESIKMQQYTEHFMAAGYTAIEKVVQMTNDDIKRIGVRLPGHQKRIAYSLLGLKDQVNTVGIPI

For `O=C(CCl)Nc1ccc2c(Nc3cc(O)ccc3Cl)ncnc2c1` [C9], the ACM chemoattractant activity result in the assay with splenic CD11b+ monocytes is “reduced ACM neurotoxic and chemoattractant activity”. Besides, the ACM neurotoxic activity entry with N2A neuronal cells is given as “decrease in neurotoxicity; also recorded: reduced ACM neurotoxic”.
Turning to `FC(F)c1nc2ccccc2n1-c1nc(N2CCOCC2)nc(N2CCOCC2)n1` [ZSTK474, reference compound], in assay [1], the “phosphorylation of AKT” value is recorded as “suppressed”.
In the case of `O=C(Nc1ccccc1Cl)c1cnc2ccc(-c3ccccc3O)cn12` [compound 116, N-(2-chlorophenyl)-6-(2-hydroxyphenyl)imidazo[1,2-a]pyridine-3-carboxamide], the remaining activity at 0.01 µM turned out to be 99.5% on EphA4, 96.5% at EphB4, 112% on EphB3 and 76.4% on EphA2. In addition, the remaining activity at 0.03 µM worked out at 77% on EphA4, 103% at EphB4, 65.5% at EphB3 and 84% at EphA2. The remaining activity at 0.1 µM is 82.4% at EphA4, 103% on EphB4, 42.9% at EphB3 and 61.3% on EphA2. In addition, the IC50 (usually the concentration that gives 50% inhibition) at EphA4 (Table 2, Example 12) was determined as 248 nM; against EphB4 (Table 2, Example 12) it was 687 nM; on EphB3 (Table 2, Example 12) it was 60 nM; on EphA2 (Table 2, Example 12), 345 nM.
In the case of `COc1cccc(NC(=O)c2cnc3ccc(C4CCNCC4)cn23)c1Cl` [compound 117, N-(2-Chloro-3-methoxyphenyl)-6-(piperidin-4-yl)imidazo[1,2-a]pyridine-3-carboxamide], the remaining activity at 0.01 µM stood at 74.7% on EphA4, 104% on EphB4, 110% at EphB3 and 95.8% at EphA2. For the same compound, the remaining activity at 0.03 µM amounted to 75.9% on EphA4, 95.6% at EphB4, 110% on EphB3 and 83.8% on EphA2. The remaining activity at 0.1 µM on EphA4 amounted to 89.8%; on EphB4, 86.7%; on EphB3, 102%; on EphA2 it was 80.8%. Besides, the IC50 was less than 10 nM against EphA4 (Table 3, Example 13); less than 10 nM on EphB4 (Table 3, Example 13); less than 10 nM at EphB3 (Table 3, Example 13); less than 10 nM against EphA2 (Table 3, Example 13).
`COc1ccc(Cl)c(NC(=O)c2cnc3ccc(C4CCNCC4)cn23)c1` [compound 118, N-(2-Chloro-5-methoxyphenyl)-6-(piperidin-4-yl)imidazo[1,2-a]pyridine-3-carboxamide]: the remaining activity at 0.01 µM at EphA4 turned out to be 87%; at EphB4, 97.4%; on EphB3, 116%; at EphA2 it was 104%. Also, the remaining activity at 0.03 µM amounted to 55.9% at EphA4, 97.5% at EphB4, 73.9% on EphB3 and 83.5% on EphA2. Also, the remaining activity at 0.1 µM is 47.3% at EphA4, 66.5% at EphB4, 91.4% at EphB3 and 82.1% at EphA2. The IC50 against EphA4 (Table 3, Example 13) is 57 nM; against EphB4 (Table 3, Example 13) it was 407 nM; at EphB3 (Table 3, Example 13) it was 630 nM; against EphA2 (Table 3, Example 13) it was 288 nM.
Take `CN(C)CC(=O)N1CCC(c2ccc3ncc(C(=O)Nc4ccccc4Cl)n3c2)CC1` [compound 119, N-(2-Chlorophenyl)-6-(1-(dimethylglycyl)piperidin-4-yl)imidazo[1,2-a]pyridine-3-carboxamide]: the remaining activity at 0.01 µM at EphA4 worked out at 80.3%; on EphB4 it was 87.2%; on EphB3, 116%; on EphA2, 71.3%. The remaining activity at 0.03 µM at EphA4 amounted to 74.2%; on EphB4, 75.9%; at EphB3, 90.3%; on EphA2, 61.2%. Besides, the remaining activity at 0.1 µM at EphA4 was found to be 72.8%; on EphB4 it was 76.3%; at EphB3 it was 78.3%; on EphA2, 45.1%.
